What was measured:
mice = assay: Amphetamine-induced hyperlocomotion (open field); format: in vivo; details: drug 2 amphetamine SC
Method: Table 2, below, indicates the locomotor responses of mice treated with various combinations of alpha-2B receptor agonists and the psychostimulant amphetamine. Drug 1 was administered 30 minutes after the animal was placed in the open field. Drug 2 was administered subcutaneously (SC) at 45 minutes after the animal was placed in the open field (15 minutes after drug 1). AUC indicates the total amount of locomotor activity after administration of drug 2. “% decrease activity” indicates the percentage decrease in total activity relative to the Vehicle+Amphetamine group. ° indicates significant difference (P<0.05) relative to Vehicle+Amphetamine treated animals. * indicates significant difference (P<0.05) relative to Vehicle+Vehicle treated animals.
Amphetamine- or cocaine-induced hyperactivity. Mice were placed in an open field apparatus (FlexField, San Diego Instruments, San Diego, Calif.). After 30 minutes of habituation, they received a vehicle or haloperidol injection or injection of alpha-2B receptor agonist followed by an injection of amphetamine (2 mg/kg, s.c.) or cocaine (10 mg/kg, i.p.) at minute 45. Their activity levels were subsequently measured for another 1 hour post-injection. Total activity over each 5 minute bin (21 total bins) was added to establish activity curve over the 105 minute testing.
For i.p. administration, the compounds are formulated in H2O with 0.5% DMSO and given in a volume of 1 ml/kg body weight by injecting into the intraperitoneal cavity. For p.o. administration, the compounds are formulated in H2O with 0.5% DMSO and given in a volume of 2 ml/kg body weight using a 25-gauge, 1.5 inch gavage needle that is slowly inserted through the esophagus into the stomach.

alpha-2A receptor = molecular target: T1, alpha-2A receptor (Homo sapiens, UniProt P08913); assay: Alpha-2A receptor activity (efficacy relative to brimonidine); format: cell-based; details: in words; b7: lacks significant activity = less than 40% of the efficacy of brimonidine at alpha-2A
T1 sequence (P08913 1-465): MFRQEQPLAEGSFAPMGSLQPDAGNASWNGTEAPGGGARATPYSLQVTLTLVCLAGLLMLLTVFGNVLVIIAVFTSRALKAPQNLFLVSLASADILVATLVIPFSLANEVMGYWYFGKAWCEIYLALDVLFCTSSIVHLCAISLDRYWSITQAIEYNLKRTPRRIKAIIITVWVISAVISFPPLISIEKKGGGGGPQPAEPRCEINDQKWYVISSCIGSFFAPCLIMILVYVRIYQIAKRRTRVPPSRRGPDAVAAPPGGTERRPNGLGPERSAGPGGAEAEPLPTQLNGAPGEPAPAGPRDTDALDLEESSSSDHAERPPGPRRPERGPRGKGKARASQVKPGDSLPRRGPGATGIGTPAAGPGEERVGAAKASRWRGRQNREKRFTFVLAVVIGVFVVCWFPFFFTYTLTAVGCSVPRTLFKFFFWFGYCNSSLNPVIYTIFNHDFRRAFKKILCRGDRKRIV
From the text: The methods of the present invention use alpha-2 agonists lacking significant activity at the alpha-2A receptor subtype. An agonist lacks significant alpha-2A receptor activity if the agonist has less than 40% of the efficacy of brimonidine at the alpha-2A receptor subtype. Compounds of the invention include, therefore, alpha-2B receptor agonists lacking significant alpha-2A activity; alpha 2B/2C receptor agonists lacking significant alpha-2A activity; and alpha-2C receptor agonists lacking significant alpha-2A activity.
Efficacy, also known as intrinsic activity, is a measure of maximal receptor activation achieved by a compound and can be determined using any accepted assay of alpha-adrenergic receptor activation, such as a cAMP or Receptor Selection and Amplification Technology (RSAT). Efficacy is represented as a ratio or percentage of the maximal effect of the drug to the maximal effect of a standard agonist for each receptor subtype. Brimonidine, itself an alpha-2B receptor agonist (it is has 100% the efficacy of brimonidine at the alpha-2B adrenergic receptor), is used as the standard agonist for the alpha-2B adrenergic receptors.
Agonist activity can be characterized using any of a variety of routine assays, including, for example, Receptor Selection and Amplification Technology (RSAT) assays (Messier et al., Pharmacol. Toxicol. 76:308-11 (1995); cyclic AMP assays (Shimizu et al., J. Neurochem. 16:1609-1619 (1969)); and cytosensor microphysiometry assays (Neve et al., J. Biol. Chem. 267:25748-25753 (1992)). Such assays generally are performed using cells that naturally express only a single alpha-adrenergic receptor subtype, or using transfected cells expressing a single recombinant alpha-adrenergic receptor subtype. The adrenergic receptor can be a human receptor or homolog of a human receptor having a similar pharmacology.
The RSAT assay measures receptor-mediated loss of contact inhibition resulting in selective proliferation of receptor-containing cells in a mixed population of confluent cells. The increase in cell number is assessed with an appropriate detectable marker gene such as beta-galactosidase, if desired, in a high throughput or ultra high throughput assay format. Receptors that activate the G protein, Gq, elicit the proliferative response. Alpha-adrenergic receptors, which normally couple to Gi, activate the RSAT response when coexpressed with a hybrid Gq protein containing a Gi receptor recognition domain, designated Gq/i5. Conklin et al., Nature 363:274-6 (1993)).
As an example, an RSAT assay can be performed essentially as follows. NIH-3T3 cells are plated at a density of 2×10^6 cells in 15 cm dishes and maintained in Dulbecco's modified Eagle's medium supplemented with 10% calf serum. One day later, cells are cotransfected by calcium phosphate precipitation with mammalian expression plasmids encoding p-SV-β-galactosidase (5-10 μg), receptor (1-2 μg) and G protein (1-2 μg). Carrier DNA, for example 40 μg salmon sperm DNA, also can be included to increase transfection efficiency. Fresh media is added on the following day; one to two days later, cells are harvested and frozen in 50 assay aliquots. Transfected cells are thawed, and 100 μl of cells added to 100 μl aliquots of compound to be tested, with various concentrations assayed in triplicate, for example, in 96-well plates. Incubation continues for 72 to 96 hours at 37° C. After washing with phosphate-buffered saline, β-galactosidase activity is determined by adding 200 μl of chromogenic substrate (3.5 mM O-nitrophenyl-β-D-galactopyranoside/0.5% NP-40 in phosphate buffered saline), incubating overnight at 30° C., and measuring optical density at 420 nm. The absorbancy is a measure of enzyme activity, which depends on cell number and reflects receptor-mediated cell proliferation. The EC50 and maximal effect (i.e., efficacy) of each drug at each receptor is determined.

SMILES	% DECREASE ACTIVITY REL TO VEH + AMPH (mice; drug 1 0.2 mg/kg IP) [% ^⋄ *]	TOTAL ACTIVITY POST-AMPHETAMINE (AUC) (mice; drug 1 0.2 mg/kg IP)	% DECREASE ACTIVITY REL TO VEH + AMPH (mice; drug 1 0.03 mg/kg IP)	TOTAL ACTIVITY POST-AMPHETAMINE (AUC) (mice; drug 1 0.03 mg/kg IP)	% DECREASE ACTIVITY REL TO VEH + AMPH (mice; drug 1 0.3 mg/kg IP) [% ^⋄ *]	TOTAL ACTIVITY POST-AMPHETAMINE (AUC) (mice; drug 1 0.3 mg/kg IP)	% DECREASE ACTIVITY REL TO VEH + AMPH (mice; drug 1 1 mg/kg IP) [% ^⋄]	TOTAL ACTIVITY POST-AMPHETAMINE (AUC) (mice; drug 1 1 mg/kg IP)	% DECREASE ACTIVITY REL TO VEH + AMPH (mice; drug 1 3 mg/kg IP) [% ^⋄]	TOTAL ACTIVITY POST-AMPHETAMINE (AUC) (mice; drug 1 3 mg/kg IP)	alpha-2A receptor activity (alpha-2A receptor)
O=C(CCCN1CCC(O)(c2ccc(Cl)cc2)CC1)c1ccc(F)cc1 [Haloperidol, reference compound]	91	1123.2 ± 280.1	–	–	–	–	–	–	–	–	–
Clc1cccc(CNC2=NCCN2)c1Cl [Compound F]	–	–	26% ^⋄ *	9933.0 ± 1898.7	29	9442.3 ± 1306.7	45	7437.8 ± 1812.4	62	5169.0 ± 1481.4	lack significant alpha-2A receptor activity
Clc1cccc(C(c2ccccc2)c2c[nH]cn2)c1Cl (centres unmarked) [Compound C]	–	–	52% ^⋄	6348.0 ± 423.4	–	–	–	–	–	–	lack significant alpha-2A receptor activity
